Source: US20100292262A1, “4 (PYRROLO[2,3-C]PYRIDINE-3-YL)PYRIMIDIN-2-AMINE DERIVATIVES” (Merck Patent Gesellschaft Mit Beschrankter Haftung, priority 2008, published 2010)
pIC50: −log10 of the molar value.

What was measured:
A2780 (ovary) cells = experiment: Inhibition of the proliferation/vitality of tumour cells (Alamar Blue test); format: cell-based; settings: Homo sapiens, 96 h, 4 days cultivation with test substance in serum-containing medium, Alamar Blue readout
Procedure: In the present experiment description, the inhibition of tumour cell proliferation/tumour cell vitality by active ingredients is described. The cells are sown in a suitable cell density in microtitre plates (96-well format) and the test substances are added in the form of a concentration series. After four further days of cultivation in serum-containing medium, the tumour cell proliferation/tumour cell vitality can be determined by means of an Alamar Blue test system.
The cells are cultivated in medium. At intervals of several days, the cells are detached from the culture dishes with the aid of trypsin solution and sown in suitable dilution in fresh medium. The cells are cultivated at 37° Celsius and 10% CO2. […]
In each case, 20 μl of Alamar Blue reagent are added per well, and the microtitre plates are incubated, for example, for a further seven hours in a CO2 incubator (at 37° C. and 10% CO2). The plates are measured in a reader with a fluorescence filter at a wavelength of 540 nm. […]
The absorbance value of the medium control (no cells and test substances used) is subtracted from all other absorbance values. The controls (cells without test substance) are set equal to 100 percent, and all other absorbance values are set in relation thereto (for example in % of control):
IC50 values (50% inhibition) are determined with the aid of statistics programs, such as, for example, RS1.

| Compound | melting point | pIC50 (A2780 (ovary) cells) |
| --- | --- | --- |
| CCCCc1cc(-c2c[nH]c3cnccc23)nc(N)n1 [Compound A1, 4-butyl-6-(1H-pyrrolo[2,3-c]pyridin-3-yl)pyrimidin-2-ylamine] | 184 to 187 °C (dec.) |  |
| c1ccc(Nc2nccc(-c3c[nH]c4cnccc34)n2)cc1 [Compound A3, phenyl-[4-(1H-pyrrolo[2,3-c]pyridin-3-yl)pyrimidin-2-yl]-amine] |  | 6.00 to 8.00 |
| Nc1nccc(-c2c[nH]c3cnccc23)n1 [Compound A4, 4-(1H-pyrrolo[2,3-c]pyridin-3-yl)pyrimidin-2-ylamine] |  | 6.00 to 8.00 |
